According to patent publication US20250034173A1, “PYRIDO[4,3-D]PYRIMIDINE COMPOUNDS” (PFIZER INC., priority 2023, published 2025):
pIC50, pKd: −log10 of the molar value.

Key:
[1] = tested on: SW620 (colorectal cancer cell line); experiment: KRAS Cell Titer Glo (CTG) cell proliferation assay, SW620; assay type: cell-based; conditions: Homo sapiens, SW-620, 168 h; SW620 cells, 7-day CTG, geomean IC50
Summary of the method: (§1)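 Compounds pre-dispensed in 0.1% DMSO before seeding H358 (300 cells/well), SW620 (750) or PANC08.13 (600); 7-day exposure at 37 °C, 5% CO2. Viability by CellTiter-Glo luminescence after 15 min at room temperature. Percent effect normalised to DMSO (0%) and 1 uM trametinib (100%); geomean IC50.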

KRAS G12D [2] = molecular target: T1, KRAS G12D (Homo sapiens (Human), UniProt P01116, G12D); experiment: SPR binding affinity and kinetics, GDP-loaded KRAS G12D; conditions: GDP loaded protein, geomean
Text: (§2) No additional regeneration was used.
(§3) Compound dissociation was monitored for at least 3600 seconds. […] No additional regeneration was used.
(§4) The adequateness of the fit was judged by c2 values and the randomness of residue distribution.

KRAS Wild Type [3] = molecular target: T2, KRAS Wild Type (Homo sapiens (Human), UniProt P01116); experiment: SPR binding affinity and kinetics, GDP-loaded KRAS Wild Type; conditions: GDP loaded protein, geomean
Text: as §2, §3, §4

KRAS G12D [4] = molecular target: T1, KRAS G12D; experiment: SPR binding affinity and kinetics, GTPγS-loaded KRAS G12D; conditions: GTPγS loaded protein, geomean
Summary of the method: (§5)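 SPR; dissoc ≥3600 s; no extra regeneration; fit quality by c2 + residual randomness.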

KRAS G12C [5] = molecular target: T3, KRAS G12C (Homo sapiens (Human), UniProt P01116, G12C); experiment: SPR binding affinity and kinetics, GDP-loaded KRAS G12C; conditions: GDP loaded protein, geomean
Text: as §2, §3, §4

HRAS Wild Type = HRAS Wild Type (Homo sapiens (Human), UniProt P01112); experiment: SPR binding affinity and kinetics, GTPγS-loaded HRAS Wild Type; conditions: GTPγS loaded protein, geomean
Summary of the method: as §5

KRAS G12C [6] = molecular target: T3, KRAS G12C; experiment: SPR binding affinity and kinetics, GTPγS-loaded KRAS G12C; conditions: GTPγS loaded protein, geomean
Summary of the method: as §5

[7] = tested on: H358 (non-small cell lung cancer cell line); experiment: KRAS Cell Titer Glo (CTG) cell proliferation assay, H358; assay type: cell-based; conditions: Homo sapiens, NCI-H358, 168 h; H358 cells, 7-day CTG, geomean IC50
Summary of the method: as §1

[8] = tested on: PANC08.13 (pancreatic cancer cell line); experiment: KRAS Cell Titer Glo (CTG) cell proliferation assay, PANC08.13; assay type: cell-based; conditions: Homo sapiens, PANC-08-13, 168 h; PANC08.13 cells, 7-day CTG, geomean IC50
Summary of the method: as §1

KRAS Wild Type [9] = molecular target: T2, KRAS Wild Type; experiment: SPR binding affinity and kinetics, GTPγS-loaded KRAS Wild Type; conditions: GTPγS loaded protein, geomean
Summary of the method: as §5

KRAS G12V [10] = molecular target: T4, KRAS G12V (Homo sapiens (Human), UniProt P01116, G12V); experiment: SPR binding affinity and kinetics, GTPγS-loaded KRAS G12V; conditions: GTPγS loaded protein, geomean
Summary of the method: as §5

NRAS Wild Type = NRAS Wild Type (Homo sapiens (Human), UniProt P01111); experiment: SPR binding affinity and kinetics, GTPγS-loaded NRAS Wild Type; conditions: GTPγS loaded protein, geomean
Summary of the method: as §5

KRAS G12V [11] = molecular target: T4, KRAS G12V; experiment: SPR binding affinity and kinetics, GDP-loaded KRAS G12V; conditions: GDP loaded protein, geomean
Text: as §2, §3, §4

T2 sequence (P01116 other isoform, or with tags, fused parts or gaps): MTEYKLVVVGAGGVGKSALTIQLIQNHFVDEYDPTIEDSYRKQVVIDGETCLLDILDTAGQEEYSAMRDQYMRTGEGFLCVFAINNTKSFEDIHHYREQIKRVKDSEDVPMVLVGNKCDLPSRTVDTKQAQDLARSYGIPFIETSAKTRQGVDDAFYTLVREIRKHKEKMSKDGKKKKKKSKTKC
T3 sequence (P01116 other isoform, or with tags, fused parts or gaps G12C): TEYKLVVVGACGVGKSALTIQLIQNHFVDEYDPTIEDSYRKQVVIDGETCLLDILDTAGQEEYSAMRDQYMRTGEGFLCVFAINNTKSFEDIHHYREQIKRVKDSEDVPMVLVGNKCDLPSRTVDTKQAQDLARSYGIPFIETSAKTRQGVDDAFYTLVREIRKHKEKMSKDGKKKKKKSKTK
T1 sequence (P01116 other isoform, or with tags, fused parts or gaps G12D): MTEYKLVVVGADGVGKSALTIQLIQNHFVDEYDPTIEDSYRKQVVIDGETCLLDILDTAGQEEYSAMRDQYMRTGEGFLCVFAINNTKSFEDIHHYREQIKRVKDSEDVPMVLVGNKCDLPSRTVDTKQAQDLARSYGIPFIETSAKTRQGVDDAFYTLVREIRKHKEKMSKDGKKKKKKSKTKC
T4 sequence (P01116 other isoform, or with tags, fused parts or gaps G12V): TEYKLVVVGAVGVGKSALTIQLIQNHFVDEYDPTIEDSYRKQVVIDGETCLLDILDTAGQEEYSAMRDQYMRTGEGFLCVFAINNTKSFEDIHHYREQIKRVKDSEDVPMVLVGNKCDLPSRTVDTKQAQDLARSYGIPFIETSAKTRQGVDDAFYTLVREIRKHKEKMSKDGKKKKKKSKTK
Chain of HRAS Wild Type (P01112 2-184): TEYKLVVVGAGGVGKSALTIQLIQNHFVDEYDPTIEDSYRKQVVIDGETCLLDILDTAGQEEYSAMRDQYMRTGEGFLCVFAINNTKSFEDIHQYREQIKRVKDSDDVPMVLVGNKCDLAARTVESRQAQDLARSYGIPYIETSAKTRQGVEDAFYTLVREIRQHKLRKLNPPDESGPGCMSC
Chain of NRAS Wild Type (P01111 2-185): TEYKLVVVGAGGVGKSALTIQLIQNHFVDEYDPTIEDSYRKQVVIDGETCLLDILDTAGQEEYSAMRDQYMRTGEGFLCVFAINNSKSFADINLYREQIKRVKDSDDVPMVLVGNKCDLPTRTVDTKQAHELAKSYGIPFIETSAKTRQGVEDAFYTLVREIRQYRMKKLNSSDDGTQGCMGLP

SMILES: Fc1c(-c2c(C3CC3)c(Cl)cc3[nH]ncc23)nc2c3c(nc(OC[C@@]45CCCN4C[C@H](F)C5)nc13)N1CCCOC[C@H]1CO2 [Example 1, (8aS)-5-(6-chloro-5-cyclopropyl-1H-indazol-4-yl)-4-fluoro-2-{[(2R,7aS)-2-fluorotetrahydro-1H-pyrrolizin-7a(5H)-yl]methoxy}-8a,9,12,13-tetrahydro-8H,11H-7,10-dioxa-1,3,6,13a-tetraazanaphtho[1,8-ab]heptalene]
- pIC50 [1]: 7.08
- pKd (KRAS G12D [2]): 10.32
- pKd (KRAS Wild Type [3]): 10.42
- pKd (KRAS G12D [4]): 8.00
- pKd (KRAS G12C [5]): 10.51
- pKd (HRAS Wild Type): < 5.00
- pKd (KRAS G12C [6]): 7.92
- pIC50 [7]: 7.14
- pIC50 [8]: 8.15
- pKd (KRAS Wild Type [9]): 7.85
- pKd (KRAS G12V [10]): 8.10
- pKd (NRAS Wild Type): < 5.00
- pKd (KRAS G12V [11]): 9.98

SMILES: Fc1c(-c2c(Cl)c(Cl)cc3[nH]ncc23)nc2c3c(nc(OC[C@@]45CCCN4C[C@H](F)C5)nc13)N1CCCC[C@H]1CO2 [Example 4, (8aS)-5-(5,6-dichloro-1H-indazol-4-yl)-4-fluoro-2-{[(2R,7aS)-2-fluorotetrahydro-1H-pyrrolizin-7a(5H)-yl]methoxy}-8,8a,9,10,11,12-hexahydro-7-oxa-1,3,6,12a-tetraazabenzo[4,5]cyclohepta[1,2,3-de]naphthalene]
- pIC50 [1]: 5.47
- pKd (KRAS G12D [2]): 8.87
- pKd (KRAS Wild Type [3]): 8.11
- pKd (KRAS G12D [4]): 5.69
- pKd (KRAS G12C [5]): 8.37
- pKd (KRAS G12C [6]): 5.64
- pIC50 [7]: 6.27
- pIC50 [8]: 6.52
- pKd (KRAS Wild Type [9]): 5.64
- pKd (KRAS G12V [10]): 5.80
- pKd (KRAS G12V [11]): 8.59

SMILES: C=C1CN2CCC[C@@]2(COc2nc3c4c(nc(-c5c(C(F)F)ccc6[nH]ncc56)c(F)c4n2)OC[C@@H]2COCCCN32)C1 [Example 10, (8aS)-5-[5-(difluoromethyl)-1H-indazol-4-yl]-4-fluoro-2-{[(7aS)-2-methylidenetetrahydro-1H-pyrrolizin-7a(5H)-yl]methoxy}-8a,9,12,13-tetrahydro-8H,11H-7,10-dioxa-1,3,6,13a-tetraazanaphtho[1,8-ab]heptalene]
- pIC50 [1]: 5.02
- pKd (KRAS G12D [2]): 8.68
- pKd (KRAS Wild Type [3]): 8.10
- pKd (KRAS G12D [4]): 5.59
- pKd (KRAS G12C [5]): 8.74
- pKd (KRAS G12C [6]): 5.49
- pIC50 [7]: 5.34
- pIC50 [8]: 6.32
- pKd (KRAS Wild Type [9]): 5.54
- pKd (KRAS G12V [10]): 5.55
- pKd (KRAS G12V [11]): 8.41

SMILES: C=C1CN2CCC[C@@]2(COc2nc3c4c(nc(-c5c(C)ccc6[nH]ncc56)c(F)c4n2)OC[C@@H]2COCCCN32)C1 [Example 5, (8aS)-4-fluoro-2-{[(7aS)-2-methylidenetetrahydro-1H-pyrrolizin-7a(5H)-yl]methoxy}-5-(5-methyl-1H-indazol-4-yl)-8a,9,12,13-tetrahydro-8H,11H-7,10-dioxa-1,3,6,13a-tetraazanaphtho[1,8-ab]heptalene]
- pIC50 [1]: 5.57
- pKd (KRAS G12D [2]): 8.66
- pKd (KRAS Wild Type [3]): 8.27
- pKd (KRAS G12D [4]): 5.91
- pKd (KRAS G12C [5]): 8.71
- pKd (KRAS G12C [6]): 5.81
- pIC50 [7]: 5.64
- pIC50 [8]: 5.98
- pKd (KRAS Wild Type [9]): 5.84
- pKd (KRAS G12V [10]): 5.84
- pKd (KRAS G12V [11]): 8.56

SMILES: C=C1CN2CCC[C@@]2(COc2nc3c4c(nc(-c5c(C(F)(F)F)c(Cl)cc6[nH]ncc56)c(F)c4n2)OC[C@@H]2COCCCN32)C1 [Example 13, (8aS)-5-[6-chloro-5-(trifluoromethyl)-1H-indazol-4-yl]-4-fluoro-2-{[(7aS)-2-methylidenetetrahydro-1H-pyrrolizin-7a(5H)-yl]methoxy}-8a,9,12,13-tetrahydro-8H,11H-7,10-dioxa-1,3,6,13a-tetraazanaphtho[1,8-ab]heptalene]
- pIC50 [1]: 7.15
- pKd (KRAS G12D [2]): 9.97
- pKd (KRAS Wild Type [3]): > 12.00
- pKd (KRAS G12D [4]): 9.00
- pKd (KRAS G12C [5]): 10.77
- pKd (KRAS G12C [6]): 8.40
- pIC50 [7]: 7.59
- pIC50 [8]: 8.15
- pKd (KRAS Wild Type [9]): 8.30
- pKd (KRAS G12V [10]): 8.52
- pKd (KRAS G12V [11]): 10.14

SMILES: C=C1CN2CCC[C@@]2(COc2nc3c4c(nc(-c5c(C6CC6)c(Cl)cc6[nH]ncc56)c(F)c4n2)OC[C@@H]2COCCCN32)C1 [Example 2, (8aS)-5-(6-chloro-5-cyclopropyl-1H-indazol-4-yl)-4-fluoro-2-{[(7aS)-2-methylidenetetrahydro-1H-pyrrolizin-7a(5H)-yl]methoxy}-8a,9,12,13-tetrahydro-8H,11H-7,10-dioxa-1,3,6,13a-tetraazanaphtho[1,8-ab]heptalene]
- pIC50 [1]: 7.85
- pKd (KRAS G12D [2]): 10.39
- pKd (KRAS Wild Type [3]): 11.40
- pKd (KRAS G12D [4]): 9.00
- pKd (KRAS G12C [5]): 10.72
- pKd (HRAS Wild Type): < 5.00
- pKd (KRAS G12C [6]): 8.30
- pIC50 [7]: 8.00
- pIC50 [8]: > 8.70
- pKd (KRAS Wild Type [9]): 8.30
- pKd (KRAS G12V [10]): 8.40
- pKd (NRAS Wild Type): < 5.00
- pKd (KRAS G12V [11]): 9.84

SMILES: C=C1CN2CCC[C@@]2(COc2nc3c4c(nc(-c5c(C(F)(F)F)ccc6[nH]ncc56)c(F)c4n2)OC[C@@H]2COCCCN32)C1 [Example 12, (8aS)-4-fluoro-2-{[(7aS)-2-methylidenetetrahydro-1H-pyrrolizin-7a(5H)-yl]methoxy}-5-[5-(trifluoromethyl)-1H-indazol-4-yl]-8a,9,12,13-tetrahydro-8H,11H-7,10-dioxa-1,3,6,13a-tetraazanaphtho[1,8-ab]heptalene]
- pIC50 [1]: 6.33
- pKd (KRAS G12D [2]): 9.94
- pKd (KRAS Wild Type [3]): 9.59
- pKd (KRAS G12D [4]): 7.38
- pKd (KRAS G12C [5]): 9.91
- pKd (KRAS G12C [6]): 7.08
- pIC50 [7]: 6.68
- pIC50 [8]: 7.46
- pKd (KRAS Wild Type [9]): 7.02
- pKd (KRAS G12V [10]): 7.21
- pKd (KRAS G12V [11]): 9.97
